# From patent US9315520B2, “2-amino-6-methyl-4,4a,5,6-tetrahydropyrano[3,4-d][1,3]thiazin-8a(8H)-yl-1,3-thiazol-4-yl amides” (Pfizer Inc., priority 2014, dated 2016)
# Where two headings read alike, the source gives them in different places.
# Key:
# BACE1 = BACE1 (Homo sapiens (Human), UniProt P56817); assay: BACE1 Cell-Free Assay (fluorescence polarization); assay type: biochemical
# [1] = test system: sAPPβ, the primary cleavage product of BACE1, in H4 human neuroglioma cells over-expressing the wild-type human APP695; assay: sAPPβ Whole-Cell Assay (WCA); assay type: cell-based; details: Homo sapiens, 18 h
# Experimental: sAPPβ Whole-Cell Assay (WCA):
# sAPPβ, the primary cleavage product of BACE1, was determined in H4 human neuroglioma cells over-expressing the wild-type human APP695. […] The colorimetric reaction was read by an EnVision (PerkinElmer) plate-reader.
# CYP2D6 = CYP2D6 (Homo sapiens (Human), UniProt P10635); assay: General Multi-Point Cocktail DDI IC50 Assay
# Chain of CYP2D6 (P10635 whole entry): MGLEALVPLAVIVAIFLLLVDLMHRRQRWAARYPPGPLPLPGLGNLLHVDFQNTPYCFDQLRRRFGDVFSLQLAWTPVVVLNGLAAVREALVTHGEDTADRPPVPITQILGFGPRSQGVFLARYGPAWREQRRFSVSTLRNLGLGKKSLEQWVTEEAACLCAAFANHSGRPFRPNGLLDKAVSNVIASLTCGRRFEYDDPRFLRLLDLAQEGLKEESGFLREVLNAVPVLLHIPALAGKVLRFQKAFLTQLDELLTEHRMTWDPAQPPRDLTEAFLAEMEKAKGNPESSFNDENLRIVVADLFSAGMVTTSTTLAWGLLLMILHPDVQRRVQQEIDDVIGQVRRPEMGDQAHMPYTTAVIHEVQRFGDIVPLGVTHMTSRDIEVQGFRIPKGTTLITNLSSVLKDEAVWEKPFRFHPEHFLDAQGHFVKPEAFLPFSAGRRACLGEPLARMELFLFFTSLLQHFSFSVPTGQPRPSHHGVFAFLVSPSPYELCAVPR
# Experimental: General Multi-Point Cocktail DDI IC50 Assay Conditions:
# The incubation volume is 0.1 mL, utilizing a 384-well plate format. […] Substrate concentrations are near Km values that had been previously determined and incubation times are selected based on determinations of reaction velocity linearity. […] Samples are directly injected on an HPLC/MS/MS system. A Biomek FX workstation is used for liquid handling and sample incubation.
# [2] = HLM Clint (clearance in human liver microsomes); assay type: in vitro ADME
# GSH Incubation Assay = assay type: in vitro ADME
# Experimental: The test compound (10 μM in DMSO) was incubated with L-glutathione (50 mM, prepared in 100 mM potassium phosphate buffer) at 37° C. for 4 hours and then analyzed by HPLC-UV/MS/MS without work-up. Thermo Accela HPLC and Velos Pro Orbitrap Elite (S/N: SN05189B) operating in positive mode with a source voltage of 3.5 kV with data dependant processing. HPLC with a Phenomenox Kinetex C18, 1.7 μM, 2.1×100 mm. column (P/N: 00D-4475-AN), 5% acetonitrile/95% 0.1% formic acid for 0.5 min then a 7.0 min linear gradient to 40% acetonitrile/60% 0.1% formic acid, 400 μL/min., column temperature 45° C. Product assignments were based on high resolution mass spectrometer fragmentation.
# P-glycoprotein (MDR1) = P-glycoprotein (MDR1) (Homo sapiens (Human), UniProt P08183); assay: Pgp Liability MDR1 Er; assay type: in vitro ADME; details: dog; MDR1-transfected MDCK cell line; ratio of permeability, Papp BA/AB
# Chain of P-glycoprotein (MDR1) (P08183 whole entry): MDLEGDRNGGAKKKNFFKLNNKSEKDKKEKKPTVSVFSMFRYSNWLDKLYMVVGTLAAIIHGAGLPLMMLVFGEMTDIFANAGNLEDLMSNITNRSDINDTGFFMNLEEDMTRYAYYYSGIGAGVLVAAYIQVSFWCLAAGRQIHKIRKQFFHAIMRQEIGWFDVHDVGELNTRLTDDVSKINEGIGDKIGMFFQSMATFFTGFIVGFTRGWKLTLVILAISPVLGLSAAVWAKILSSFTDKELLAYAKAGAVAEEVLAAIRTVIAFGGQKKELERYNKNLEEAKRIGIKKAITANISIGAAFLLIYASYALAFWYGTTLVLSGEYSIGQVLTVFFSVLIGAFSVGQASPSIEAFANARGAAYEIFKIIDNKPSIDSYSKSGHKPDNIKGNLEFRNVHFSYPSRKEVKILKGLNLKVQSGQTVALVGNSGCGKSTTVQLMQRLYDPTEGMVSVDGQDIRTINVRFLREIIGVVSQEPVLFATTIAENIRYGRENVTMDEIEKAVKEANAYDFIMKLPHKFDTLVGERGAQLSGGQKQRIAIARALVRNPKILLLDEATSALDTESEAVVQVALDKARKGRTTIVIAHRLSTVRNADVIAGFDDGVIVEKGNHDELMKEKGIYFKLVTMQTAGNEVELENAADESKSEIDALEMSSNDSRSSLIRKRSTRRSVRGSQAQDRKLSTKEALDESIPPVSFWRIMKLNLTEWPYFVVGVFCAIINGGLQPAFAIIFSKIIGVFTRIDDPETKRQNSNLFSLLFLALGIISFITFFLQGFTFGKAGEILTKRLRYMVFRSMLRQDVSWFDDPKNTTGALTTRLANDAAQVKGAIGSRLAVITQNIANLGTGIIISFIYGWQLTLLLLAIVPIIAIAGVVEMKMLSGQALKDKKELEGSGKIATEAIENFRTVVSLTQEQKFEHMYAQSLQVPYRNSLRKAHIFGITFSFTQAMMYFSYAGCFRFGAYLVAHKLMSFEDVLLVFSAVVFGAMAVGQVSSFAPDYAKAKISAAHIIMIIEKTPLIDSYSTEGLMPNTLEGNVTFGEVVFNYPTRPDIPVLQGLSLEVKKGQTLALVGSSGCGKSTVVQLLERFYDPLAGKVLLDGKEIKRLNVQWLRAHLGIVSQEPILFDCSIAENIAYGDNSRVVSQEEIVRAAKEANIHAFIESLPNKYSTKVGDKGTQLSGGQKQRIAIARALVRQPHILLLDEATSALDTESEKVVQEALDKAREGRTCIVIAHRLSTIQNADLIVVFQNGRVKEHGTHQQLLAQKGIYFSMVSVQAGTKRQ
# Source text: (§1) MDR1 Efflux Ratio (MDR Er) from MDR1-transfected MDCK line cell line represents the ratio of permeability, Papp BA/AB. Procedure utilized from (Feng, B.; Mills, J. B.; Davidson, R. E.; Mireles, R. J.; Janiszewski, J. S.; Troutman, M. D.; de Morais, S. M. In vitro P-glycoprotein assays to predict the in vivo interactions of P-glycoprotein with drugs in the central nervous system. Drug Metab. Dispos. 2008, 36, 268-275.
# [3] = target: P-glycoprotein (MDR1-transfected MDCK cell line) (Homo sapiens (Human), UniProt P08183); assay: Pgp Liability MDR1 Er; assay type: in vitro ADME; details: Papp BA/AB, MDR1-transfected MDCK
# Chain of P-glycoprotein (MDR1-transfected MDCK cell line) (P08183 whole entry): as above
# Source text: as §1
# hERG channel = hERG channel (Homo sapiens (Human), UniProt Q12809); assay: hERG Patch Clamp Assay; assay type: cell-based
# Chain of hERG channel (Q12809 whole entry): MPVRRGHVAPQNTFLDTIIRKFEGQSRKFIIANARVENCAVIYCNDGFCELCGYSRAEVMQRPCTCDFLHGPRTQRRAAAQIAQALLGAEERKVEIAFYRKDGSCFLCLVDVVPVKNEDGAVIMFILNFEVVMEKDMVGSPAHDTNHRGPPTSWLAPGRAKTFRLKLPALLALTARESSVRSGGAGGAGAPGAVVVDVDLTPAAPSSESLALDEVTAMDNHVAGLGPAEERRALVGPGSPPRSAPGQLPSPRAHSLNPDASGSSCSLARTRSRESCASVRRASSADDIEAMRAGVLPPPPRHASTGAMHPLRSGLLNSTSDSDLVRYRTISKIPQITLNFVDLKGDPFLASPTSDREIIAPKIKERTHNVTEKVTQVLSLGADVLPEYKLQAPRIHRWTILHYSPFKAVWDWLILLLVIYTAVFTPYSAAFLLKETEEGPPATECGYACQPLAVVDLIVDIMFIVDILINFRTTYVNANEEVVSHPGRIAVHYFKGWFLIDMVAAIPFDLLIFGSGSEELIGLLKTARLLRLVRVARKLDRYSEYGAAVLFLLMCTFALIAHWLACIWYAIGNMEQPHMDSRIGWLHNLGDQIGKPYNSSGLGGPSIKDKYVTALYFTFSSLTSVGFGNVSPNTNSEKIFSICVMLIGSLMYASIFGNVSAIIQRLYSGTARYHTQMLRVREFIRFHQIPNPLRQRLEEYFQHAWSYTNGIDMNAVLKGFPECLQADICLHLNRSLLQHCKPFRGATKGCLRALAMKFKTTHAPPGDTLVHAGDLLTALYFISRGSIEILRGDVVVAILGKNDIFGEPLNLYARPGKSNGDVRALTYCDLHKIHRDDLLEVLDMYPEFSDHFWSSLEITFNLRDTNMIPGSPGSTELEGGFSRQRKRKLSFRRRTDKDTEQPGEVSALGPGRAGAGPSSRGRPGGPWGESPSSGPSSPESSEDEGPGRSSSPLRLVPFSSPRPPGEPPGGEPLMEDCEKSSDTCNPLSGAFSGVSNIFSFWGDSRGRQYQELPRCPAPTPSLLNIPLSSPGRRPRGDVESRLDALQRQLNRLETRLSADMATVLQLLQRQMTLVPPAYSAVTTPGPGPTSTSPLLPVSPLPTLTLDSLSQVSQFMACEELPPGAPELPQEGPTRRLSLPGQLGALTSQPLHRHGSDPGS
# Experimental: After a ˜30 minute recovery period, experiments were initiated.
# hERG Potassium Channel Current Recordings and Data Analysis:
# The intracellular recording saline was composed of (in […]): 70 KF, 60 KCl, 15 NaCl, 5 EGTA, 5 HEPES, and adjusted to pH 7.2±0.1 with KOH. […] Test pulses were delivered at a frequency of 0.25 Hz. Up to 4 different concentrations were studied on each cell, each exposure lasting 5 minutes or until steady-state effects were observed. […] Using Sophion Qpatch Assay Software, the amplitude of the peak outward hERG current upon repolarizing ramp was measured. Current amplitude was determined by taking the average of the last 5 current peaks under each treatment condition. […] When possible, a concentration-response curve was plotted and the data were fitted using Qpatch software to determine an IC50. The P<0.05 was considered statistically significant.
# pKa = assay type: physicochemical; details: Measurement determined at Analyza; read-out: pKa
# Chain of BACE1 (P56817 46-457): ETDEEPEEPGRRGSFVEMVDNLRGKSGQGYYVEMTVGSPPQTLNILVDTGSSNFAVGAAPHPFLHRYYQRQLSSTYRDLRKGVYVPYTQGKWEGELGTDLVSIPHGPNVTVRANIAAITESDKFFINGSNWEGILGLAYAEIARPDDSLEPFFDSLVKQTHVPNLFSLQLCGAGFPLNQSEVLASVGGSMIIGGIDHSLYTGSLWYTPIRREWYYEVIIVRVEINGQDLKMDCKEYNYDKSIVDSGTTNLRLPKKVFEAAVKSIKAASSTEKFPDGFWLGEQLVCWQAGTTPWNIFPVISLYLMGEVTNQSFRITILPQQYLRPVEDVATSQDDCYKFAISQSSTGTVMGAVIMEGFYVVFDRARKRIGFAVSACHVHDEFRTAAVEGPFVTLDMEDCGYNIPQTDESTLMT
smiles,measurement,setting,value
"C[C@H]1C[C@H]2CSC(N)=N[C@@]2(c2nc(NC(=O)c3cnc(OC(F)F)cn3)cs2)CO1 [Example 2, N-{2-[(4aR,6S,8aR)-2-amino-6-methyl-4,4a,5,6-tetrahydropyrano[3,4-d][1,3]thiazin-8a(8H)-yl]-1,3-thiazol-4-yl}-5-(difluoromethoxy)pyrazine-2-carboxamide]",IC50,"BACE1; Table 4, read-out: BACE1 Cell Free IC50",0.073 µM
same,IC50,"BACE1; geometric mean of 2-4 determinations unless otherwise indicated (b: ≧5; c: single determination), read-out: BACE1 Cell-free Assay IC50",0.073 µM
same,IC50,[1],0.007 µM
same,IC50,CYP2D6,> 30 µM
same,IC50,"CYP2D6; human, microsomes, pH 7.4",> 30 µM
same,HLM CLint,[2],<0.48 L/h/kg
same,CLint scaled,[2]; human,< 0.48 L/h/kg
same,Observed GSH adducts,GSH Incubation Assay; Incubations with glutathione (50 mM) at 37° C. in buffer for 4 hours,Negative
same,formation of GSH adducts,GSH Incubation Assay; following incubations,not detected
same,efflux ratio,P-glycoprotein (MDR1),1.8
same,Pgp liability MDR1 Er,[3],< 2.5
same,IC50,"hERG channel; CHO cell transfected with hERG gene, automated Qpatch HT system",23.6 µM
same,IC50,hERG channel; CHO cells transfected with hERG,> 5 µM
same,pKa,pKa,6.8
same,Aniline Structural Alert,Aniline structural alert,No
